Assay results from ChEMBL document CHEMBL1128364 (J Med Chem, 1995).
One block for each molecule: values may come before it.

What was measured:
[1] = target: Vasopressin V1a receptor (Rattus norvegicus) (UniProt P30560); assay: (§1) Anti-vasopressor activity at V1a receptor
[2] = target: Vasopressin V2 receptor (Rattus norvegicus) (UniProt Q00788); assay: (§2) Antidiuretic activity at V2 receptor; assay type: tissue-based; conditions: Urine
[3] = tested on: Rattus norvegicus; assay: (§3) In vivo activity for the anti-oxytocic activity.; assay type: functional
[4] = target: Vasopressin V1a receptor (Rattus norvegicus, UniProt P30560); assay: as §1; conditions: read-out: pA2 (converted)
[5] = tested on: Rattus norvegicus; assay: as §3; assay type: functional, organism-based; conditions: read-out: pA2 (converted)
[6] = tested on: Rattus norvegicus; assay: (§4) In vivo anti-oxytocic activity was determined.; assay type: functional
[7] = target: Vasopressin V2 receptor (Rattus norvegicus, UniProt Q00788); assay: as §2; assay type: tissue-based, Urine; conditions: read-out: pA2 (converted)
[8] = target: T1, Oxytocin receptor (Rattus norvegicus, UniProt P70536); assay: In vitro anti-oxytocic activity with 0.5 mM Mg2+.; conditions: read-out: pA2 (converted)
T1 sequence (P70536 whole entry): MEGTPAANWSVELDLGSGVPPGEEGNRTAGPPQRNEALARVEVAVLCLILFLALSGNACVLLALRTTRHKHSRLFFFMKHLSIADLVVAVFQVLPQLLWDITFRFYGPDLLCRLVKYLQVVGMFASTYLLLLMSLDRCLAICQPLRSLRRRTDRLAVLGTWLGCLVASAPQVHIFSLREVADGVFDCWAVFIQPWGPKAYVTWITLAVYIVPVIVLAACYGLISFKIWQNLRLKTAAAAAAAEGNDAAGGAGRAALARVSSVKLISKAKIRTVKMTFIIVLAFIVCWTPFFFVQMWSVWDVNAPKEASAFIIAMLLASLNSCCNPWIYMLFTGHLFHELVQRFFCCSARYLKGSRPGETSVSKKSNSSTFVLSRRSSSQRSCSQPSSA

[9] = target: T1, Oxytocin receptor; assay: In vitro anti-oxytocic activity with out Mg2+.; conditions: read-out: pA2 (converted)
[10] = target: Vasopressin V2 receptor (Rattus norvegicus) (UniProt Q00788); assay: Antidiuretic activity at V2 receptor.; conditions: Urine
[11] = target: T2, Oxytocin receptor (Rattus norvegicus) (UniProt P70536); assay: Compound was evaluated for the oxytocic activity with 0.5 mM Mg2+.
T2 sequence (whole entry): T1 sequence (P70536 whole entry)

[12] = tested on: Rattus norvegicus; assay: as §4; assay type: functional, organism-based; conditions: read-out: pA2 (converted)
[13] = target: T2, Oxytocin receptor (Rattus norvegicus); assay: Compound was evaluated for the oxytocic activity with out Mg2+.

Sequence of Vasopressin V2 receptor (Rattus norvegicus) (Q00788 whole entry): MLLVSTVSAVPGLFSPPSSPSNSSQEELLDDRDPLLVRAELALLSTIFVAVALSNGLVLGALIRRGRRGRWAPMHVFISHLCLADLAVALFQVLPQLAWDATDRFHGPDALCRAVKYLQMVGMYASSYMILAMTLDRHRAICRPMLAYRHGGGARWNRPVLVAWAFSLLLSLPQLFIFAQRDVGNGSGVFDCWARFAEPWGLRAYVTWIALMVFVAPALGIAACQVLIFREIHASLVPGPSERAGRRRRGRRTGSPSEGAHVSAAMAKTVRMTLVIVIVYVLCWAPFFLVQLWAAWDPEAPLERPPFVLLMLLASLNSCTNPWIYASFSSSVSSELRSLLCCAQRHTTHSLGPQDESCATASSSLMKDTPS
Sequence of Vasopressin V2 receptor (Q00788 whole entry): as above
Sequence of Vasopressin V1a receptor (P30560 whole entry): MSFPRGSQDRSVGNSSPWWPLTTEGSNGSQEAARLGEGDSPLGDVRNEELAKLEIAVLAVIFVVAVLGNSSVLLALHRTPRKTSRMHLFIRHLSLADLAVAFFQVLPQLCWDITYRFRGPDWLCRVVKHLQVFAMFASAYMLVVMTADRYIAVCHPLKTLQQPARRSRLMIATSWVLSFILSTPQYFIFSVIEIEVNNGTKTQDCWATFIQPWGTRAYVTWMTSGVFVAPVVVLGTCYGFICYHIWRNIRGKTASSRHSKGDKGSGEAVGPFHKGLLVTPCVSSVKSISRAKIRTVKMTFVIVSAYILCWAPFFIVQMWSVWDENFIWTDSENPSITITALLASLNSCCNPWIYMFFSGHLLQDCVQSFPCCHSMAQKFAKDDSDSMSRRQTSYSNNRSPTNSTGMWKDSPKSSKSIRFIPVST
Sequence of Vasopressin V1a receptor (Rattus norvegicus) (P30560 whole entry, looked up): as the sequence (P30560 whole entry) above

Compound: CCOc1ccc(C[C@@H]2NC(=O)CC3(CCCCC3)SSC[C@@H](C(=O)N3CCC[C@H]3C(=O)N[C@@H](CCCN=C(N)N)C(=O)NCC(N)=O)NC(=O)[C@H](CC(N)=O)NC(=O)[C@H](C(C)C)NC(=O)[C@H](Cc3ccccc3)NC2=O)cc1
ED [1]: 0.14 nM/kg
ED [2]: 1.9 nM/kg
ED [3]: 13 nM/kg
Kb [4]: 6.92 nM
Kb [5]: 182 nM

Compound: CC[C@H](C)[C@@H]1NC(=O)[C@H](Cc2ccc(OC)cc2)NC(=O)CC2(CCCCC2)SSC[C@H](C(=O)N2CCC[C@H]2C(=O)N[C@@H](CCCN)C(=O)O)NC(=O)[C@H](CC(N)=O)NC(=O)[C@H]([C@@H](C)O)NC1=O [listing 1 of 2 here]
ED [6]: 9.24 nM/kg

Kb [7]: 3160 nM
Kb [8]: 5.75 nM
ED [1]: 23 nM/kg
Kb [9]: 12.9 nM
Kb [4]: 331 nM
Compound: CC[C@H](C)[C@@H]1NC(=O)[C@H](Cc2ccc(OC)cc2)NC(=O)CC2(CCCCC2)SSC[C@@H](C(=O)N2CCC[C@H]2C(=O)N[C@@H](CCCN)C(=O)O)NC(=O)[C@H](CC(N)=O)NC(=O)[C@H]([C@@H](C)O)NC1=O

Compound: CC(C)[C@@H]1NC(=O)[C@H](Cc2ccccc2)NC(=O)[C@@H](Cc2ccccc2)NC(=O)CC2(CCCCC2)SSC[C@H](C(=O)N2CCC[C@H]2C(=O)N[C@@H](CCCN=C(N)N)C(=O)NCC(N)=O)NC(=O)[C@H](CC(N)=O)NC1=O
Kb [7]: 56.2 nM
ED [1]: 1.9 nM/kg
ED [2]: 3.9 nM/kg
Kb [4]: 27.5 nM

Compound: N=C(N)NCCC[C@H](NC(=O)[C@@H]1CCCN1C(=O)[C@@H]1CSSC[C@H](N)C(=O)N[C@@H](Cc2ccc(O)cc2)C(=O)N[C@@H](Cc2ccccc2)C(=O)N[C@@H](CCC(N)=O)C(=O)N[C@@H](CC(N)=O)C(=O)N1)C(=O)NCC(N)=O
Antidiuretic activity [10]: 323 U mg-1
Oxytocic activity [11]: 25.5 U mg-1

Compound: CCOc1ccc(C[C@H]2NC(=O)CC3(CCCCC3)SSC[C@H](C(=O)N3CCC[C@H]3C(=O)N[C@@H](CCCN=C(N)N)C(=O)NCC(N)=O)NC(=O)[C@H](CC(N)=O)NC(=O)[C@H](C(C)C)NC(=O)[C@H](Cc3ccccc3)NC2=O)cc1
Kb [4]: 8.71 nM
Kb [5]: 69.2 nM

Kb [7]: 3980 nM
Kb [8]: 25.1 nM
Kb [9]: 18.6 nM
Kb [4]: 275 nM
Compound: CC[C@H](C)[C@@H]1NC(=O)[C@H](Cc2ccc(OC)cc2)NC(=O)CC2(CCCCC2)SSC[C@H](C(=O)N2CCC[C@H]2C(=O)N[C@@H](CCCN)C(=O)O)NC(=O)[C@H](CC(N)=O)NC(=O)[C@H]([C@@H](C)O)NC1=O [listing 2 of 2 here]
Kb [12]: 138 nM

Compound: CC[C@H](C)[C@@H]1NC(=O)[C@H](Cc2ccc(O)cc2)NC(=O)[C@H](N)CSSC[C@H](C(=O)N2CCC[C@H]2C(=O)N[C@@H](CC(C)C)C(=O)NCC(N)=O)NC(=O)[C@H](CC(N)=O)NC(=O)[C@H](CCC(N)=O)NC1=O
Oxytocic activity [13]: 0.62 U mg-1
Antidiuretic activity [10]: < 0.002 U mg-1

Compound: CC[C@H](C)[C@@H]1NC(=O)[C@@H](Cc2cc3ccccc3[nH]2)NC(=O)CC2(CCCCC2)SSC[C@@H](C(=O)N2CCC[C@H]2C(=O)N[C@@H](CCCN=C(N)N)C(=O)NCC(N)=O)NC(=O)[C@H](CC(N)=O)NC(=O)[C@H](CCC(N)=O)NC1=O
ED [1]: 2 nM/kg

Compound: NC(=O)CC[C@@H]1NC(=O)[C@H](Cc2ccccc2)NC(=O)[C@H](Cc2ccc(O)cc2)NC(=O)[C@H](N)CSSC[C@H](C(=O)N2CCC[C@H]2C(=O)N[C@@H](CCCN=C(N)N)C(=O)NCC(N)=O)NC(=O)[C@H](CC(N)=O)NC1=O
Antidiuretic activity [10]: 0.82 U mg-1

Compound: CC(C)[C@@H]1NC(=O)[C@@H](Cc2ccccc2)NC(=O)[C@@H](Cc2ccccc2)NC(=O)CC2(CCCCC2)SSC[C@@H](C(=O)N2CCC[C@H]2C(=O)N[C@@H](CCCN=C(N)N)C(=O)NCC(N)=O)NC(=O)[C@@H](CC(N)=O)NC1=O
ED [1]: 0.58 nM/kg
ED [2]: 0.67 nM/kg

Compound: CCOc1ccc(C[C@H]2NC(=O)CC3(CCCCC3)SSC[C@@H](C(=O)N3CCC[C@H]3C(=O)N[C@@H](CCCN=C(N)N)C(=O)NCC(N)=O)NC(=O)[C@H](CC(N)=O)NC(=O)[C@H](C(C)C)NC(=O)[C@H](Cc3ccccc3)NC2=O)cc1
ED [1]: 0.45 nM/kg
ED [2]: 1.1 nM/kg
Kb [4]: 6.03 nM

Compound: CC[C@H](C)[C@@H]1NC(=O)[C@H](Cc2cc3ccccc3[nH]2)NC(=O)CC2(CCCCC2)SSC[C@H](C(=O)N2CCC[C@H]2C(=O)N[C@@H](CCCN=C(N)N)C(=O)NCC(N)=O)NC(=O)[C@H](CC(N)=O)NC(=O)[C@H](CCC(N)=O)NC1=O
ED [1]: 2 nM/kg

Compound: CC[C@H](C)[C@@H]1NC(=O)[C@@H](Cc2c[nH]c3ccccc23)NC(=O)CC2(CCCCC2)SSC[C@@H](C(=O)N2CCC[C@H]2C(=O)N[C@@H](CCCN)C(=O)NCC(N)=O)NC(=O)[C@H](CC(N)=O)NC(=O)[C@H]([C@@H](C)O)NC1=O
ED [6]: 3.08 nM/kg
